Holding throughout (type): biochemical
Common to all, as to conditions: luminometer

One assay has as its target T1, TBK1 (Homo sapiens, UniProt Q9UHD2).
T1 construct: purchased Promega V3991
T1 sequence (Q9UHD2 1-729): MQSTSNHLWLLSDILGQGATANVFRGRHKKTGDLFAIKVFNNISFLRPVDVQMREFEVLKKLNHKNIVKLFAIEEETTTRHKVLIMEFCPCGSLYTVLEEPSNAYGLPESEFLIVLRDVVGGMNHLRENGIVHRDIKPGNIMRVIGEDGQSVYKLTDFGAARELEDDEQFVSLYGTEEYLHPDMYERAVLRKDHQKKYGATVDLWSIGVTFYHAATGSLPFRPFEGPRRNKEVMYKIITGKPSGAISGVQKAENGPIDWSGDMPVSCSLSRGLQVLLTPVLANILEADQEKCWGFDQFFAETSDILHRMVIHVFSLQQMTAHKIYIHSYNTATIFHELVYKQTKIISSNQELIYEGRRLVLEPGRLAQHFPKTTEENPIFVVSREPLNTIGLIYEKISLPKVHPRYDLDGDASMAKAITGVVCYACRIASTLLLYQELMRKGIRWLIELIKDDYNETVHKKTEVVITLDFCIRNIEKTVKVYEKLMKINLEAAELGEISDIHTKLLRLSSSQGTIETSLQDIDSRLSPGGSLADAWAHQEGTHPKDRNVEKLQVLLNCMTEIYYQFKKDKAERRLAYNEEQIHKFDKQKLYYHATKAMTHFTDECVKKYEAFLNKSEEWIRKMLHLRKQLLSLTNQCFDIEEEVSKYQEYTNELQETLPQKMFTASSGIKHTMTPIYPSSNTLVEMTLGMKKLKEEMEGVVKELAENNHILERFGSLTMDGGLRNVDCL
The assay is described as follows: TBK1 inhibition, ADP-Glo Kinase Assay. A digest of the protocol: (§1)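 ADP-Glo luminescence reported ADP produced by each kinase, following the kit protocol. Reactions used commercial kinase enzyme systems in buffer of 40 mM Tris (pH 7.5), 20 mM MgCl2 and 0.1 mg/mL BSA.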

The target of another assay is T2, IKKε (Homo sapiens, UniProt Q14164).
T2 construct: purchased Invitrogen PR8031B
T2 sequence (Q14164 1-716): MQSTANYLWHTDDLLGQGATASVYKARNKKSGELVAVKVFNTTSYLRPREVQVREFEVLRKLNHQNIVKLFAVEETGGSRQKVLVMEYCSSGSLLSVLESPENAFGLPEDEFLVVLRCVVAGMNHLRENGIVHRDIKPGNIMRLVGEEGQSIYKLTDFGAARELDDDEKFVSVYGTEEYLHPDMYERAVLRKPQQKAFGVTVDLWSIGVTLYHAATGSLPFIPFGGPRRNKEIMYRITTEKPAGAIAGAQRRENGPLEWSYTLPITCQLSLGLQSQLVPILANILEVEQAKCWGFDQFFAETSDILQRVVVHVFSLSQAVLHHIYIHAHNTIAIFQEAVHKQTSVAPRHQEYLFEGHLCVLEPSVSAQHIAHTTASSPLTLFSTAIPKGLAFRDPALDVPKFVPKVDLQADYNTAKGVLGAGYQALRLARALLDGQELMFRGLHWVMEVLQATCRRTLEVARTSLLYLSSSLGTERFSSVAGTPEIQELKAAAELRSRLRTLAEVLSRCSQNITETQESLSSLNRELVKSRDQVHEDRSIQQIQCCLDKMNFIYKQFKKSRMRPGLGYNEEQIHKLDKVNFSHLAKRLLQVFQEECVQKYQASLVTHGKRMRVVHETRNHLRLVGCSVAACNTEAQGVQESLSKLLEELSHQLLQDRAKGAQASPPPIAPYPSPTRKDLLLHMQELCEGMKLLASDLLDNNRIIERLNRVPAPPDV
The assay is described as follows: IKKε inhibition, ADP-Glo Kinase Assay. A digest of the protocol: as §1
On the technique in general: ADP-Glo turns the ADP formed in a reaction into a luminescent signal.

A further assay concerns the target T3, TNIK (Homo sapiens, UniProt Q9UKE5).
T3 construct: purchased Promega V4158
The assay is described as follows: TNIK inhibition, ADP-Glo Kinase Assay. As for the experimental part: Inhibition activities on TNIK, IKKε and TBK1 were evaluated using the compounds of Examples 1 to 254.
The inhibition activities on TNIK, IKKε and TBK1 were measured by a luminometer, TNIK/IKKε/TBK1 Kinase Enzyme System (Promega, Ca# V4158; Invitrogen, PR8031B, Promega, Ca# V3991) and ADP-Glo Kinase Assay using ADP-Glo™ Kinase Analysis Kit (Promega, Ca# V9101) and a kinase reaction buffer [40 mM Tris(pH 7.5), 20 mM MgCl2, 0.1 mg/mL BSA] in accordance with the manufacturer's protocol.

The source of these data is patent US10294207B2, “Pyrazole derivatives as TNIK, IKKϵ and TBK1 inhibitor and pharmaceutical composition comprising same” (GREEN CROSS CORPORATION, priority 2015, dated 2019).

Each structure is given as a SMILES string. Bounds are passed on as bounds.

T3 sequence (Q9UKE5 1-367 limits assumed): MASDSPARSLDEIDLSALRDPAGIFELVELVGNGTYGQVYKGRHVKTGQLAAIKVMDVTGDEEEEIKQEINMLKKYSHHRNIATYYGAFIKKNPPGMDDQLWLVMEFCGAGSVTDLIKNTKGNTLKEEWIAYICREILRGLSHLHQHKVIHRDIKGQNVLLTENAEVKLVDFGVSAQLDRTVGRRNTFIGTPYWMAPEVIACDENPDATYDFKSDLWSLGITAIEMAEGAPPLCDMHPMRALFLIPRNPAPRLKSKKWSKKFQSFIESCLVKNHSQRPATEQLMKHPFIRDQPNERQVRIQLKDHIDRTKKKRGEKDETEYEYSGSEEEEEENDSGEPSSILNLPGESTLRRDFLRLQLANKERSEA

As usually defined, the IC50 is the point on the concentration scale where inhibition reaches its midpoint. Low values mean higher potency, high ones lower potency. For `CC(C)(C)OC(=O)N1CC=C(c2ccc(C(=O)Nc3n[nH]c4ccc(C(=O)NCc5cccs5)cc34)cc2)CC1` [Example 198, tert-Butyl 4-(4-((5-((thiophen-2-ylmethyl)carbamoyl)-1H-indazol-3-yl)carbamoyl)phenyl)-3,6-tetrahydropyridine-1(2H)-carboxylate], the IC50 against TBK1 came out at 0.15 µM; on IKKε, 1.28 µM.
For `O=C(NCc1cccs1)c1ccc2[nH]nc(NC(=O)c3ccc(C4=CCNCC4)cc3)c2c1` [Example 199, 3-(4-(1,2,3,6-Tetrahydropyridin-4-yl)benzamido)-N-(thiophen-2-ylmethyl)-1H-indazole-5-carboxamide] the same measures were 0.0097 µM and 0.14 µM.
On to `O=C(NCc1cccs1)c1ccc2[nH]nc(NC(=O)c3ccc(OCCN4CCOCC4)cc3)c2c1` [Example 201, 3-(4-(2-Morpholinoethoxy)benzamido)-N-(thiophen-2-ylmethyl)-1H-indazole-5-carboxamide], for which the IC50 was determined as 0.003 µM on TBK1 and 0.038 µM against IKKε.
As for `CCC(NC(=O)c1ccc2[nH]nc(NC(=O)c3ccc(N4CCN(C(C)=O)CC4)cc3)c2c1)c1ccsc1` (centres unmarked) [Example 209, 3-(4-(4-Acetylpiperazin-1-yl)benzamido)-N-(1-(thiophen-3-yl)propyl)-1H-indazole-5-carboxamide], the IC50 against TBK1 was determined as 0.0029 µM; against IKKε it was 0.015 µM.
For `CC(=O)Nc1ccc(C(=O)Nc2n[nH]c3ccc(C(=O)NCc4cccs4)cc23)cc1` [Example 211, 3-(4-Acetamidobenzamido)-N-(thiophen-2-ylmethyl)-1H-indazole-5-carboxamide] the same measures were 0.0013 µM and 0.079 µM.
Consider `O=C(NCc1cccs1)c1ccc2[nH]nc(NC(=O)c3ccc(-n4ccnc4)cc3)c2c1` [Example 212, 3-(4-(1H-Imidazol-1-yl)benzamido)-N-(thiophen-2-ylmethyl)-1H-indazole-5-carboxamide], for which the IC50 against TBK1 was 0.078 µM; against IKKε, 0.36 µM.
As to `CN1CCC(Nc2ccc(C(=O)Nc3n[nH]c4ccc(C(=O)NCc5cccs5)cc34)cc2)CC1` [Example 213], the IC50 was 0.0044 µM at TBK1 and 0.069 µM against IKKε.
Taken in the same sequence, the figures for `CC(NC(=O)c1ccc2[nH]nc(NC(=O)c3ccc(F)cc3)c2c1)c1ccncc1` (centres unmarked) [Example 214, 3-(4-Fluorobenzamido)-N-(1-(pyridin-4-yl)ethyl)-1H-indazole-5-carboxamide] were 0.27 µM and 0.59 µM.
As to `CC(C)(NC(=O)c1ccc2[nH]nc(NC(=O)c3ccc(F)cc3)c2c1)c1cccs1` [Example 215, 3-(4-Fluorobenzamido)-N-(2-(thiophen-2-yl)propan-2-yl)-1H-indazole-5-carboxamide], the IC50 against TBK1 turned out to be 0.021 µM; at IKKε, 0.32 µM.
`O=C(Nc1n[nH]c2ccc(C(=O)NC3(c4ccccn4)CC3)cc12)c1ccc(F)cc1` [Example 216, 3-(4-Fluorobenzamido)-N-(1-(pyridin-2-yl)cyclopropyl)-1H-indazole-5-carboxamide]: the IC50 at TBK1 turned out to be 3.7 µM; against IKKε, 5.25 µM.
For `O=C(Nc1n[nH]c2ccc(C(=O)NC3(c4cccnc4)CC3)cc12)c1ccc(F)cc1` [Example 217, 3-(4-Fluorobenzamido)-N-(1-(pyridin-3-yl)cyclopropyl)-1H-indazole-5-carboxamide] the same measures were 0.52 µM and 0.65 µM.
As for `Cc1cnc(-c2cc3[nH]nc(NC(=O)c4ccc(N5CCOCC5)cc4)c3s2)o1` [Example 218, N-(5-(5-methyloxazol-2-yl)-1H-thieno[3,2-c]pyrazol-3-yl)-4-morpholinobenzamide], the IC50 against TNIK was 0.048 µM.
In the case of `Cc1cnc(-c2cc3[nH]nc(NC(=O)c4ccc(N5CCOCC5)cc4)c3s2)s1` [Example 219, N-(5-(5-methylthiazol-2-yl)-1H-thieno[3,2-c]pyrazol-3-yl)-4-morpholinobenzamide], the figures for the IC50 at TBK1 and against TNIK were 0.33 µM and 0.13 µM, respectively.
For `Cc1cnc(-c2cc3[nH]nc(NC(=O)c4ccccc4)c3s2)o1` [Example 220, N-(5-(5-methyloxazol-2-yl)-1H-thieno[3,2-c]pyrazol-3-yl)benzamide] the same measures were 1.2 µM and 0.36 µM.
Taken in the same sequence, the figures for `Cc1cnc(-c2cc3[nH]nc(NC(=O)c4ccc(F)cc4)c3s2)o1` [Example 221, 4-fluoro-N-(5-(5-methyloxazol-2-yl)-1H-thieno[3,2-c]pyrazol-3-yl)benzamide] were 1.7 µM and 0.65 µM.
Regarding `COc1ccc(C(=O)Nc2n[nH]c3cc(-c4ncc(C)o4)sc23)cc1` [Example 222, 4-methoxy-N-(5-(5-methyloxazol-2-yl)-1H-thieno[3,2-c]pyrazol-3-yl)benzamide], the IC50 turned out to be 0.35 µM at TBK1 and 0.31 µM against TNIK.
Consider `COC(=O)c1cc2[nH]nc(-c3ccc(N(C)C)cc3)c2s1` [Example 234, methyl 3-(4-(dimethylamino)phenyl)-1H-thieno[3,2-c]pyrazole-5-carboxylate], for which, on TNIK, the “TNIK (μM), inhibition activity” value is recorded as “insoluble”.
As to `CCNC(=O)c1cc2[nH]nc(-c3ccc(N(C)C)cc3)c2s1` [Example 237, 3-(4-(dimethylamino)phenyl)-N-ethyl-1H-thieno[3,2-c]pyrazole-5-carboxamide], the IC50 on TNIK stood at 1.79 µM.
On the same count and under the same terms, the value for `CCNC(=O)c1cc2[nH]nc(-c3ccccc3)c2s1` [Example 238, N-ethyl-3-phenyl-1H-thieno[3,2-c]pyrazole-5-carboxamide] was 3.47 µM; that for `CCc1cnc(-c2cc3[nH]nc(-c4ccc(N5CCOCC5)cc4)c3s2)o1` [Example 244, 4-(4-(5-(5-ethyloxazol-2-yl)-1H-thieno[3,2-c]pyrazol-3-yl)phenyl)morpholine] was 1.01 µM; that for `COC(=O)c1cc2[nH]nc(-c3ccc(NC(C)=O)cc3)c2s1` [Example 245, methyl 3-(4-acetamidophenyl)-1H-thieno[3,2-c]pyrazole-5-carboxylate] was 0.16 µM.
The same measure, in the same setting: with `Cc1cnc(-c2cc3[nH]nc(-c4ccc(F)cc4)c3s2)o1` [Example 246, 2-(3-(4-fluorophenyl)-1H-thieno[3,2-c]pyrazol-5-yl)-5-methyloxazole] the figure was 0.5 µM; with `Cc1cnc(-c2cc3[nH]nc(-c4ccc(F)cc4)c3s2)s1` [Example 247, 3-(4-fluorophenyl)-5-(5-methylthiazol-2-yl)-1H-thieno[3,2-c]pyrazole], above 20 µM; with `O=C(c1cc2[nH]nc(-c3ccc(N4CCOCC4)cc3)c2s1)N1CCCC1` [Example 248, (3-(4-morpholinophenyl)-1H-thieno[3,2-c]pyrazol-5-yl)(pyrrolidin-1-yl)methanone], 8.09 µM.
Same read-out and setting: the value for `COC(=O)c1cc2[nH]nc(-c3ccc(OCCN4CCOCC4)cc3)c2s1` [Example 249, methyl 3-(4-(2-morpholinoethoxy)phenyl)-1H-thieno[3,2-c]pyrazole-5-carboxylate] was 0.47 µM.
Consider `Cc1cnc(-c2cc3[nH]nc(-c4ccc(OCCN5CCOCC5)cc4)c3s2)o1` [Example 250, 4-(2-(4-(5-(5-methyloxazol-2-yl)-1H-thieno[3,2-c]pyrazol-3-yl)phenoxy)ethyl)morpholine], for which the IC50 against TNIK was found to be 0.11 µM.
